Patent US20180369268A1, “METHODS FOR IDENTIFYING INHIBITORS OF "STIMULATOR OF INTERFERON GENE"- DEPENDENT INTERFERON PRODUCTION” (ADURO BIOTECH, INC., priority 2015, published 2018)

biological target: T1, hSTING HAQ allele (Homo sapiens, UniProt Q86WV6, G230A/H232R/R293Q); assay: Differential scanning fluorometry (DSF) Tm shift with purified STING AA140-379; assay type: binding; conditions: DSF, ligand 1 mM, 1 mg/ml STING AA140-379; read-out: hSTING Tm Shift HAQ
T1 construct: DNA encoding amino acids 140-379 (amino acid numbering corresponding to Swiss Prot Q86WV6); 6xHIS-SUMO (with TEV site) (N, cleaved yes); made in house; host or cells: Rosetta2 (DE3) E. coli
T1 sequence (Q86WV6 140-379 G230A/H232R/R293Q): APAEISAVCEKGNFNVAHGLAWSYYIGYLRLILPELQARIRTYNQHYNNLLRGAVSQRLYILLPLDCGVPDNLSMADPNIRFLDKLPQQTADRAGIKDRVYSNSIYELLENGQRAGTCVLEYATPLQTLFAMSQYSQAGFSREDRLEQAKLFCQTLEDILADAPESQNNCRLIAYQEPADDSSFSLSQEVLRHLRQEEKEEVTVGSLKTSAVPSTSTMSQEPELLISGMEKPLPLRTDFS
Source text: DNA encoding amino acids 140-379 (amino acid numbering corresponding to Swiss Prot Q86WV6) was amplified from plasmids containing the full length sequence of human STING alleles via polymerase chain reaction with the following primers: forward […] (SEQ ID NO: 9) and reverse […] (SEQ ID NO: 10). STING variant alleles were assigned according to Yi, et al, (2013), PLoS One, 8(10), e77846 (DOI: 10.1371/journal.pone.0077846. PCR products were cloned into bacterial expression vector encoding a N-terminal hexa-histidine affinity tag (6×HIS) followed by a small ubiquitin-like modifier (SUMO) solubility sequence (Butt, et al, (2005) Protein expression and purification 43.1, 1-9) and tobacco etch virus protease cleavage site (TEV) using ligation independent cloning (Aslanidis, et al, (1990) Nucleic acids research, 18.20, 6069-6074).
Plasmids encoding 6×HIS-SUMO-TEV-STING amino acids 140-379 were transformed into Rosetta2 (DE3) E. coli cells (EMD Millipore) for protein expression. Cells were grown in lysogeny broth at 37° C. until a […] absorbance of 0.6 was reached. Cells were then transferred to 18° C. and protein expression was induced overnight by the addition of isopropyl β-D-1-thiogalactopyranoside to the media at a concentration of 0.25 mM. Cells were harvested by centrifugation at 6,000 times gravity for 10 minutes. Cell pellets were re-suspended on ice in a buffer containing 50 mM Tris hydrochloride (Tris-HCl) pH 7.5, 500 mM sodium chloride (NaCl), 20 mM imidazole, 10% glycerol, 1 mM tris(2-carboxyethyl)phosphine hydrochloride (TCEP) and protease inhibitor tablet (Pierce) (Buffer A). Cells were lysed using an S-450D sonifier (Emmerson industrial) on ice. Cell lysate was centrifuged at 15,000 times gravity for 30 minutes at 4° C. Soluble material was applied to nickel-nitrilotriacetic acid (Ni-NTA) coupled Sepharose CL-6B (Qiagen) for 1 hour with gentle rocking at 4° C. After transfer to a gravity flow poly-prep column (Bio-Rad), resin was washed extensively in buffer A. Protein was eluted from the column in a buffer containing 20 mM Tris-HCl pH 7.5, 150 mM NaCl, 300 mM imidazole, 10% glycerol and 0.5 mM TCEP. To remove the 6×HIS-SUMO tag eluted protein was mixed with TEV protease (Sigma) at a ratio of 1:250 (w:w) and dialyzed overnight against a buffer containing 20 mM Tris-HCl pH 7.5, 150 mM NaCl, 5 mM imidazole, 10% glycerol and 0.5 mM TCEP. TEV protease and 6×HIS-SUMO tags were depleted by the addition of Ni-NTA resin (Qiagen) to the sample, purified STING amino acids 140-379 was collected by removal of the resin using a poly-prep column STING AA140-379 was concentrated with a 10,000 Dalton molecular weight cutoff centrifuge concentrator (EMD Millipore) to a final concentration of approximately 10 mg/ml. Protein was aliquoted, flash frozen in liquid nitrogen and stored at −80° C. until use.
Differential scanning fluorometry (DSF) is a technique that measures the ability of ligands to bind to and stabilize purified proteins (Niesen, et al, (2007) Nature protocols 2.9, 2212-2221). The protein is heated in the presence of a dye that binds to and fluoresces in hydrophobic environments. The protein is thermally denatured by heating resulting in increased dye binding to the unfolded protein and fluorescence. The temperature midpoint (Tm) of a proteins denaturation is established by calculating the half maximal value of the denaturation curve. The temperature midpoint of the protein in the presence of a ligand is directly related to the affinity of the ligand for the protein and therefore its ability to stabilize the protein at higher temperatures.
DSF was performed in a 20 μL reaction comprising 20 mM Tris-HCl pH 7.5, 150 mM NaCl, 1:500 dilution of SYPRO Orange (Life Technologies), 1 mg/ml purified STING AA140-379 protein and ligand at a concentration of 1 mM. Wild type hSTING, HAQ allele hSTING and/or REF allele hSTING were used with scaffold molecules of the invention as listed in Table 2.

| ΔTm at 1000 µM [°C] | SMILES |
| --- | --- |
| 9.9 | CC(C)C(=O)Nc1nc2c(ncn2[C@@H]2O[C@@H]3CO[P@@](=O)(S)O[C@H]4[C@@H](F)[C@H](n5cnc6c(=O)[nH]c(NC(=O)C(C)C)nc65)O[C@@H]4CO[P@](=O)(S)O[C@H]3[C@H]2F)c(=O)[nH]1 [Compound 32a, N,N′-(((2R,3R,3aR,5R,7aR,9R,10R,10aR,12S,14aR)-3,10-difluoro-5,12-dimercapto-5,12-dioxidooctahydro-2H,7H-difuro[3,2-d:3′,2′-j][1,3,7,9]tetraoxa[2,8]diphosphacyclododecine-2,9-diyl)bis(6-oxo-6,9-dihydro-1H-purine-9,2-diyl))bis(2-methylpropanamide)] |
| 4.2 | CC(C)C(=O)Nc1nc2c(ncn2[C@@H]2O[C@@H]3CO[P@](=O)(S)O[C@@H]4[C@H](O)[C@@H](CO[P@@](=O)(S)O[C@H]3[C@H]2O)O[C@H]4n2cnc3c(NC(=O)c4ccccc4)ncnc32)c(=O)[nH]1 [Compound 42a, dithio-[RP, SP]-cyclic-[ibG(3′,5′)p-BzA(2′,5′)p]] |
| 5.4 | C#CCOc1nc(N)nc2c1ncn2[C@@H]1O[C@@H]2COP(=O)(O)O[C@H]3[C@@H](O)[C@H](n4cnc5c(OCC#C)nc(N)nc54)O[C@@H]3COP(=O)(O)O[C@H]2[C@H]1O [compound 26, (2R,3R,3aS,7aR,9R,10R,10aS,14aR)-2,9-bis(2-amino-6-(prop-2-yn-1-yloxy)-9H-purin-9-yl)-3,5,10,12-tetrahydroxyoctahydro-2H,7H-difuro[3,2-d: 3′,2′-j][1,3,7,9]tetraoxa[2,8]diphosphacyclododecine 5,12-dioxide] |

same assay, conditions: read-out: hSTING Tm Shift HAQ

| SMILES | ΔTm at 1000 µM [°C] |
| --- | --- |
| CC(C)(C)[Si](C)(C)O[C@H]1[C@H]2O[P@](=O)(S)OC[C@H]3O[C@@H](n4cnc5c(N)ncnc54)[C@H](F)[C@@H]3O[P@](=O)(S)OC[C@H]1O[C@H]2n1cnc2c(N)ncnc21 [Compound 6, dithio-[RP, RP]-cyclic-[3′OTBS-A(2′,5′)p-2′F-A(3′,5′)p]] | 18.1 |
| CC(C)(C)[Si](C)(C)O[C@H]1[C@H]2O[P@](=O)(S)OC[C@H]3O[C@@H](n4cnc5c(N)nc(N)nc54)[C@H](O)[C@@H]3O[P@](=O)(S)OC[C@H]1O[C@H]2n1cnc2c(N)ncnc21 [Compound 12, dithio-[RP, RP]-cyclic-[A(2′,5′)p-2,6-DAP(3′,5′)p]] | 14.3 |
| CC(C)(C)[Si](C)(C)O[C@H]1[C@H]2O[P@@](=O)(S)OC[C@H]3O[C@@H](n4cnc5c(N)nc(N)nc54)[C@H](O)[C@@H]3O[P@](=O)(S)OC[C@H]1O[C@H]2n1cnc2c(N)ncnc21 [Compound 12a, dithio-[SP, RP]-cyclic-[A(2′,5′)p-2,6-DAP(3′,5′)p]] | 14.5 |

biological target: T2, STING in THP1 cells (HAQ allele) (Homo sapiens, UniProt Q86WV6, G230A/H232R/R293Q/R71H); assay: THP-1 competition assay with STING agonist 2′3′-RR-(A)(A) (IRF-3 luciferase reporter); assay type: cell-based; conditions: not given
T2 construct: host or cells: THP-1 dual reporter cells
T2 sequence (Q86WV6 whole entry R71H/G230A/H232R/R293Q): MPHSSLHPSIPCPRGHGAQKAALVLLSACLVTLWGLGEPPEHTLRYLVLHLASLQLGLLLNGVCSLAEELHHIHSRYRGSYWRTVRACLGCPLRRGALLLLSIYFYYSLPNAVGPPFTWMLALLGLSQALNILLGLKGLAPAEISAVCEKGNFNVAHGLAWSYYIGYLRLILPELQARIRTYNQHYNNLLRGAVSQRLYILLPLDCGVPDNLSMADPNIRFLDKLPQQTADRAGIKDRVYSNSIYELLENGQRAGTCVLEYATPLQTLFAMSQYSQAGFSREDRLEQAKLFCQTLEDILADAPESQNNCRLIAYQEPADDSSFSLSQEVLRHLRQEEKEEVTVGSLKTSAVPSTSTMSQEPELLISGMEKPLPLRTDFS
Protocol: The scaffold molecules and STING inhibitory compounds as described herein are assayed for their ability to inhibit the induction of STING dependent IFN-β production by an agonist compound in a competition assay. Relative induction of IRF-3 signaling in THP-1 cells (HAQ allele) was measured after stimulating the cells with a mix of a scaffold molecule (or any putative STING antagonist) titrated against a constant concentration of the STING agonist 2′3′-RR-(A)(A) in PB buffer (50 mM HEPES pH 7.5, 100 mM KCl, 3 mM MgCl2, 0.1 mM DTT, 85 mM sucrose, 0.2% BSA, 1 mM ATP, 0.1 mM GTP).
One day prior to performing the assay, THP-1 dual (Invivogen) reporter cells were plated at 500,000 cells/mL in 200 μL per well in a 96-well plate and differentiated overnight with 3 μg/mL phorbal myristate acetate in RPMI medium 1640 (4.5 g/L D-glucose, 2.383 g/L HEPES, 300 mg/L L-glutamine, 1.5 g/L sodium bicarbonate, 110 mg/L sodium pyruvate, 10% heat-inactivated fetal bovine serum, 1× penicillin/streptomycin, 0.1 mg/mL normocin).
On the day of the assay, the media was removed from the wells and replaced with 150 μL of fresh media. The titrations against 2′ 3′-RR-(A)(A) in a final volume of 100 μL were made as follows: two-fold dilutions (2,000 μM-3.9 μM) of the scaffold molecule into PB buffer containing 100 μM 2′3′-RR-(A)(A) for a final concentration of 50 μM 2′3′-RR-(A)(A). Compounds were tested in biological triplicate.
The cells were then stimulated with 25 μL of each titration for 30 minutes at 37° C. in a CO2 incubator. After stimulating, the cells were washed twice, first with 100 μL and then 150 μL of fresh media. After washing, 150 μL of media was added to each well and the cells were incubated for 17 hours overnight at 37° C. in a CO2 incubator.
To detect IRF-3 signaling, 50 μL of luciferase substrate (Invivogen QUANTI-Luc coelenterazine-based luminescence reagent reconstituted in 25 mL water) was added to 10 μL of supernatant from each well in a 96-well white opaque plate. Luminescence was measured using a SpectraMax M3 plate reader (Molecular Devices) and relative fold-induction was calculated as the values obtained from wells containing both the scaffold molecule and 2′3′-RR-(A)(A) divided by the values obtained from wells containing 2′3′-RR-(A)(A) alone. The average of the relative fold-induction was plotted against the log concentration of the antagonist. Agonist compounds 2′3′-RR-(G)(A) and RR-(A)(A) were run as controls in this assay (see FIGS. 2A and 2B).
The results are provided for control compounds in FIGS. 2A and 2B and scaffold molecules in FIGS. […]: 2′3′-SR-(3′OTBS-A)(2′F-A) (FIG. 3A, Comp. 6a), SR-(2′F-A)(2′OTBS-A) (FIG. 3B, Comp. 18a), RR-(2,6-DAP)(2,6-DAP) (FIG. 3C, Comp. 23), RS-(2,6-DAP)(2,6-DAP) (FIG. 3D, Comp. 23a), (6-O-propargyl-G)(G) (FIG. 3E, Comp. 25), RR-(2′F-ibG)(2′F-ibG) (FIG. 3F, Comp. 32), RR-(2′F-C)(2′F-A) (FIG. 3G, Comp. 37), RS-(2′F-C)(2′F-A) (FIG. 3H, Comp. 37a), 3′2′-RR-(ibG)(BzA) (FIG. 3I, Comp. 42), 3′2′-SS-(G)(A) (FIG. 3J, Comp. 43), dithio-3′2′-(2′OTBS-G)(3′OTBS-A) isomer 1 (FIG. 3K, Comp. 49, isomer 1), dithio-3′2′-(2′OTBS-G)(3′OTBS-A) isomer 2 (FIG. 3L, Comp. 49, isomer 2), Beta-L-SS-(A)(A) (FIG. 3M, Comp. 48), Beta-L-RS-(A)(A) (FIG. 3N, Comp. 48a), and Beta-L-RR-(A)(A) (FIG. 3O, Comp. 48b). Isomer 1 and 2 of Compound 49 are different isomers, and are each one of compound 49a, 49b, 49c or 49d.

| SMILES | IC50 [µM] |
| --- | --- |
| CC(C)(C)[Si](C)(C)O[C@@H]1[C@@H]2OP(=O)(S)OC[C@H]3O[C@@H](n4cnc5c(N)ncnc54)[C@H](OP(=O)(S)OC[C@H]2O[C@H]1n1cnc2c(=O)[nH]c(N)nc21)[C@@H]3O[Si](C)(C)C(C)(C)C (single isomer, unassigned) [compound 49 isomer 1, dithio-3′2′-(2′OTBS-G)(3′OTBS-A) isomer 1] | 109 |
| CC(C)(C)[Si](C)(C)O[C@@H]1[C@@H]2OP(=O)(S)OC[C@H]3O[C@@H](n4cnc5c(N)ncnc54)[C@H](OP(=O)(S)OC[C@H]2O[C@H]1n1cnc2c(=O)[nH]c(N)nc21)[C@@H]3O[Si](C)(C)C(C)(C)C (single isomer, unassigned) [compound 49 isomer 2, dithio-3′2′-(2′OTBS-G)(3′OTBS-A) isomer 2] | 420 |
| CC(C)(C)[Si](C)(C)O[C@@H]1[C@@H]2O[P@](=O)(S)OC[C@H]3O[C@@H](n4cnc5c(N)ncnc54)[C@H](F)[C@@H]3O[P@@](=O)(S)OC[C@H]2O[C@H]1n1cnc2c(N)ncnc21 [Compound 18a, (2R,3R,3aR,5R,7aR,9R,10R,10aR,12S,14aR)-2,9-bis(6-amino-9H-purin-9-yl)-3-((tert-butyldimethylsilyl)oxy)-10-fluoro-5,12-dimercaptooctahydro-2H,7H-difuro[3,2-d:3′,2′-j][1,3,7,9]tetraoxa[2,8]diphosphacyclododecine 5,12-dioxide] | 2110 |
